Test results published in patent publication US20100008932A1, “USE OF SOLUBLE CD160 TO SUPPRESS IMMUNITY” (INSERM (Institut National de la Sante et de la Recherche …, priority 2006, published 2010).

What was measured:
[1] = test system: release of soluble CD160 by IL-15-stimulated PB-NK cells; test: Anti-CD160 immunoprecipitation and immunoblotting of soluble CD160 in PB-NK cell culture supernatant; format: cell-based, human; conditions: IL-15-stimulated PB-NK cells cultured in the presence of 1,10-PNT; CL1-R2 immunoprecipitation and Western blot
Description: Culture medium (10 ml) from transfected COS7 cells was incubated with 5 μg of anti-Flag M2 mAb for 1 h 30 at 4° C., and immune complexes were collected with 20 μl of Protein G-Sepharose beads. Alternatively, 2×10^7 control or IL-15-activated PB-NK lymphocytes were cultured for 24-48 h in 10 ml of RPMI 1640 medium without serum. Culture supernatants were collected and incubated with CL1-R2 mAb (10 μg per test) followed by protein G-Sepharose beads. After washes, the precipitated proteins were separated by SDS-8% PAGE. The proteins were then transferred onto a nitrocellulose membrane and subjected to Western blot analysis using the anti-CD160 (CL1-R2, 5 μg/ml) or anti-Flag M2 (5 μg/ml) mAb. HRP-conjugated goat anti-mouse antibodies (Jackson Immunoresearch, Westgrove, Pa.) were used as secondary antibodies, and the immunoreactive proteins were visualized using an ECL kit (Amersham Biosciences).

[2] = test system: CD160 cell surface expression on IL-15-activated PB-NK lymphocytes; test: Inhibition of the GPI-anchored CD160 cleavage: flow cytometry of membrane-bound CD160 on IL-15-activated PB-NK cells; format: cell-based, human; conditions: 8-12 h after 72 h IL-15, PB-NK cells, anti-CD160 mAb BY55 flow cytometry
Source text: The antibodies used in this study were the following: anti-Flag M2 mAb (Sigma, St Quentin Fallavier, France), rabbit anti-GPI-phospholipase D (Caltag laboratories, Burlingame, Calif.), anti-CD56 mAb (Beckman-Coulter, Marseille, France), and anti-CD160 mAb (BY55 (IgM) and CL1-R2 (IgG1), produced locally). Irrelevant isotype-matched antibodies were used as negative controls. FITC- or PE-conjugated goat anti-mouse IgG or IgM (Beckman-Coulter), or coat anti-rabbit IgG (Caltag laboratories) were utilized as secondary reagents. Cells were phenotyped by indirect i munofluorescence. Briefly, the cells were incubated with the specific mAb for 30 min at 4° C., washed twice in PBS, and further incubated with the appropriated FITC- or PE-labeled secondary antibodies. After washing, cells were analyzed by flow cytometry on an EPICS XL apparatus (Beckman-Coulter). For intracellular staining, the cells were permeabilized in saponin buffer (PBS/0.1% BSA/0.1% saponin) (Sigma) prior to staining, and all subsequent steps were performed in saponin buffer, as described above.
The phospholipase inhibitors U73122, U73343 and 1,10 phenanthroline (1,10 PNT) were purchased from Sigma. 3×10^5/ml PB-NK cells were cultured for 72 h in RPMI 1640 supplemented with 10% heat-inactivated human serum, penicillin/streptomycin, L-glutamine and IL-15 (10 ng/ml; PeproTech, Levallois-Perret, France). […]

Structure (SMILES) | soluble CD160 protein band immunoprecipitated from culture supernatant [1] | effect on IL-15-induced down-modulation of CD160 cell surface expression ([2]; 1,10 PNT 10 μM) | effect on IL-15-induced down-modulation of CD160 cell surface expression ([2]; U73122 2 μM)
O.c1cnc2c(c1)ccc1cccnc12 [1,10 PNT, 1,10-phenanthroline monohydrate] | no protein band is immunoprecipitated | partially impaired | 
COc1ccc2c(c1)CC[C@@H]1[C@@H]2CC[C@]2(C)[C@@H](NCCCCCCN3C(=O)C=CC3=O)CC[C@@H]12 [U73122] |  |  | not affected
